Measurements reported in patent US10421718B2, “EBNA1 inhibitors and their method of use” (priority 2013, dated 2019).
Counter-ions that a name gives are not always drawn.

Each compound was assayed against T1, His-EBNA1 (DNA binding domain of EBNA1, amino acids 459-607) (Epstein-Barr virus, UniProt P03211) (assay: Inhibition of 5′-biotin-oPL4624 binding to His-EBNA1 using Alpha Screen technology). Details: Alpha Screen Activity (IC50, inhibition of 5′-biotin-oPL4624 binding to His-EBNA1), 15 nM His-EBNA1, 0.2 nM bt-oPL4624, 2 hr room temperature.
T1 construct: made in house; host or cells: E. coli
T1 sequence (P03211 459-607): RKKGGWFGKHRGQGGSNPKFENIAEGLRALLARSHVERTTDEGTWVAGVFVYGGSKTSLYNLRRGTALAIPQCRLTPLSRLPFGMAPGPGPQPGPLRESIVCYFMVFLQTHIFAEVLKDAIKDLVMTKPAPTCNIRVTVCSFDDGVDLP
Procedure: Inhibition of 5′-biotin-oPL4624 binding to His-EBNA1 using Alpha Screen technology: Assays were performed using the DNA binding domain of EBNA1 (amino acids 459-607), which was His-tagged (His-EBNA1) and the self-complementary biotinylated (bt) oligonucleotide with the sequence 5′-bt-[…]-ATGCTACCC-3′ (bt-oPL4624). The protein was expressed in E. coli and purified according to Barwell, et al. (Barwell J A, Bochkarev A, Pfuetzner R A, Tong H, Yang D S, Frappier L, Edwards A M. (1995) Overexpression, purification, and crystallization of the DNA binding and dimerization domains of the Epstein-Barr virus nuclear antigen 1. J Biol Chem. 270: 20556-9.). The bt-oPL4624 oligonucleotide was purchased from Integrated DNA Technologies, Inc (IDT). AlphaScreen donor, acceptor beads and white, opaque 384-well assay plates were purchased from PerkinElmer, Inc.
Assays contained 15 nM His-EBNA1, 0.2 nM bt-oPL4624, 5 μg/mL AlphaScreen streptavidin donor beads and nickel chelate acceptor beads, and a series of concentrations of test compound ranging from 3.2 nM to 100 μM in a total volume of 40 μL assay buffer (25 mM Tris, pH 7.2, 160 mM NaCl, 1 mM MgCl2). His-EBNA1 (30 nM) and bt-oPL4624 (0.4 nM) were preincubated with 10 μg/mL nickel chelate AlphaScreen acceptor bead, or 10 μg/mL streptavidin AlphaScreen donor bead, respectively, for 30 minutes at room temperature in assay buffer. Twenty microliters of His-EBNA1/acceptor bead mix and bt-oPL4624/donor bead mix were transferred to assay plates containing […] of 1:3 serial dilutions of test compounds previously prepared in DMSO at concentrations ranging from 0.32 μM to 10 mM. Nonspecific binding was determined with 5 μg/mL AlphaScreen acceptor bead in the absence of His-EBNA1. After 2 hr incubation at room temperature, the AlphaScreen signal was measured on the Envision plate reader (PerkinElmer, Inc.) at 680 nm excitation and 570 nm emission. Inhibition values at each concentration of test compound were determined by setting 100% equal to raw data values in the absence of EBNA1 and 0% equal to the raw data values in the presence of EBNA1. Nonlinear regression fits of the inhibition values to a one-site dose-response equation were performed using GraphPad Prism.
`O=C(O)c1cccc(C#Cc2cccc(CNS(=O)(=O)c3cc(F)cc(F)c3)c2)c1-n1cccc1` [Entry 163, 3-{2-[3-(3,5-difluorobenzenesulfonamidomethyl)phenyl]ethynyl}-2-(1H-pyrrol-1-yl)benzoic acid] showed an IC50 of 1 to 10 µM.
For `Cc1nc2cc(-c3c(C#Cc4cscn4)cccc3C(=O)O)ccc2s1` [Entry 173], the IC50 was 10 to 100 µM.
Work on `O=C(O)c1cc(F)cc(C#Cc2ccccc2)c1-n1cccc1` [Entry 61, 5-fluoro-3-(2-phenylethynyl)-2-(1H-pyrrol-1-yl)benzoic acid] yielded an IC50 of 10 to 100 µM.
Work on `O=C(O)c1cccc(C#Cc2ccccc2)c1F` [Entry 85, 2-fluoro-3-(2-phenylethynyl)benzoic acid] yielded an IC50 of 1 to 10 µM.
For `Cc1ccc(C)n1-c1c(C#Cc2cccc(C(=O)O)c2)cccc1C(=O)O` [Entry 194, 3-(3-carboxy-phenylethynyl)-2-(2,5-dimethyl-pyrrol-1-yl)-benzoic acid], the IC50 was < 1 µM.
With `O=C(O)c1cccc(C#Cc2ccccc2)c1-c1cccc(CO)c1` [Entry 128, 2-[3-(hydroxymethyl)phenyl]-3-(2-phenylethynyl)benzoic acid] the IC50 was 10 to 100 µM.
Work on `O=C(O)c1cccc(C#Cc2ccccc2)c1-n1cncn1` [Entry 296, 3-phenylethynyl-2-[1,2,4]triazol-1-yl-benzoic acid] yielded an IC50 of 10 to 100 µM.
`O=C(O)c1cccc(C#Cc2ccccc2)c1NCc1ccccc1` [Entry 108, 2-(benzylamino)-3-(phenylethynyl)benzoic acid] was tested, and the IC50 was 10 to 100 µM.
In the case of `O=C(Nc1ccc(C#Cc2cccc(C(=O)O)c2-c2ccc3cc[nH]c3c2)cc1)c1cccnc1` [Entry 214, 2-(1H-indol-6-yl)-3-{4-[(pyridine-3-carbonyl)-amino]phenylethynyl}-benzoic acid], the IC50 is reported as < 1 µM.
In the case of `O=C(O)c1cccc(C#Cc2ccccc2)c1-n1ccc2ccccc21` [Entry 299, 2-indol-1-yl-3-phenylethynyl-benzoic acid], the IC50 is reported as 1 to 10 µM.
For `O=C(O)c1cccc(C#Cc2ccccc2)c1N1CC[C@H](O)C1` [Entry 105, (S)-2-(3-hydroxypyrrolidin-1-yl)-3-(phenylethynyl)benzoic acid], the IC50 was 100 to 1000 µM.
`O=C(O)c1cccc(C#Cc2cn(S(=O)(=O)c3ccccc3)c3ccccc23)c1` [Entry 181, 3-(1-benzenesulfonyl-1H-indol-3-ylethynyl)-benzoic acid] gave an IC50 of 10 to 100 µM.
`O=C(O)c1cccc(C#Cc2ccncc2)c1-c1cc(O)cc(F)c1` [Entry 272, 2-(3-fluoro-5-hydroxyphenyl)-3-[2-(pyridin-4-yl)ethynyl]benzoic acid; trifluoroacetate salt] gave an IC50 of 10 to 100 µM.
In the case of `NCc1cccc(C#Cc2cccc(C(=O)O)c2-n2cccc2)c1` [Entry 162, 3-{2-[3-(Aminomethyl)phenyl]ethynyl}-2-(1H-pyrrol-1-yl)benzoic acid], the IC50 is reported as 1 to 10 µM.
`O=C(O)c1cccc(C#Cc2ccncc2)c1-c1ccccc1` [Entry 177, 2-phenyl-3-[2-(pyridin-4-yl)ethynyl]benzoic acid] was tested, and the IC50 was 100 to 1000 µM.
In the case of `O=C(O)c1cccc(C#Cc2ccc3cc[nH]c3c2)c1-n1cccc1` [Entry 43, 3-[2-(1H-indol-6-yl)ethynyl]-2-(1H-pyrrol-1-yl)benzoic acid], the IC50 is reported as < 1 µM.
Compound `COc1ccc(C#Cc2cccc(C(=O)O)c2-n2cccc2)cc1` [Entry 67, 3-[2-(4-methoxyphenyl)ethynyl]-2-(1H-pyrrol-1-yl)benzoic acid] has an IC50 of 1 to 10 µM.
`O=C(O)c1cccc(C#Cc2cscn2)c1-c1ccc2cc[nH]c2c1` [Entry 218, 2-(1H-indol-6-yl)-3-(thiazol-4-ylethynyl)benzoic acid] gave an IC50 of 10 to 100 µM.
In the case of `O=C(O)c1cccc(C#Cc2cccc(NS(=O)(=O)c3ccc(F)c(Cl)c3)c2)c1-c1ccc2cc[nH]c2c1` [Entry 232, 3-((3-(3-chloro-4-fluorophenylsulfonamido)phenyl)ethynyl)-2-(1H-indol-6-yl)benzoic acid], the IC50 is reported as < 1 µM.
`CN1CCOc2cc(-c3c(C#Cc4ccncc4)cccc3C(=O)O)ccc21` [Entry 176, 2-(4-methyl-3,4-dihydro-2H-1,4-benzoxazin-7-yl)-3-[2-(pyridin-4-yl)ethynyl]benzoic acid] was tested, and the IC50 was 10 to 100 µM.
`O=C(O)c1cccc(C#Cc2ccccc2)c1N1CCCC1c1ccccc1` (stereo not drawn) [Entry 102, 3-(2-phenylethynyl)-2-(2-phenylpyrrolidin-1-yl)benzoic acid] gave an IC50 of 1 to 10 µM.
For `O=C(NS(=O)(=O)N1CCOCC1)c1cccc(C#Cc2ccccc2)c1-n1cccc1` [Entry 115, N-(morpholine-4-sulfonyl)-3-(2-phenylethynyl)-2-(1H-pyrrol-1-yl)benzamide], the IC50 was 100 to 1000 µM.
`O=C(O)c1cccc(C#Cc2ccc3nccn3c2)c1-n1cccc1` [Entry 6, 3-(2-{imidazo[1,2-a]pyridin-6-yl}ethynyl)-2-(1H-pyrrol-1-yl)benzoic acid] gave an IC50 of 10 to 100 µM.
`O=C(O)c1cccc(C#Cc2ccccc2)c1OCc1ccccc1` [Entry 155, 2-(benzyloxy)-3-(2-phenylethynyl)benzoic acid] gave an IC50 of 10 to 100 µM.
For `COc1cc(OC)cc(-c2c(C#Cc3ccncc3)cccc2C(=O)O)c1` [Entry 273, 2-(3,5-dimethoxyphenyl)-3-[2-(pyridin-4-yl)ethynyl]benzoic acid; trifluoroacetate salt], the IC50 was 10 to 100 µM.
`O=C(O)c1cccc(C#Cc2cccc(O)c2)c1-c1ccc2c(c1)OCO2` [Entry 242, 2-(benzo[d][1,3]dioxol-5-yl)-3-((3-hydroxyphenyl)ethynyl)benzoic acid] showed an IC50 of 10 to 100 µM.
`Cc1ccc(C)n1-c1c(C#Cc2cccc(CO)c2)cccc1C(=O)O` [Entry 195, 2-(2,5-dimethyl-pyrrol-1-yl)-3-(3-hydroxymethyl-phenylethynyl)-benzoic acid] gave an IC50 of 10 to 100 µM.
`O=C(O)c1cccc(C#Cc2cccc(O)c2)c1-c1cncnc1` [Entry 243, 3-((3-hydroxyphenyl)ethynyl)-2-(pyrimidin-5-yl)benzoic acid] gave an IC50 of 10 to 100 µM.
`Cc1ccc(C)n1-c1c(C#CC(C)(C)O)cccc1C(=O)O` [Entry 191, 2-(2,5-dimethyl-pyrrol-1-yl)-3-(3-hydroxy-3-methyl-but-1-ynyl)-benzoic acid] was tested, and the IC50 was 10 to 100 µM.
`CS(=O)(=O)NC(=O)c1cccc(C#Cc2ccc(F)cc2)c1-n1cccc1` [Entry 117, 3-[2-(4-fluorophenyl)ethynyl]-N-methanesulfonyl-2-(1H-pyrrol-1-yl)benzamide] gave an IC50 of 10 to 100 µM.
Compound `COc1ccc(C#Cc2cccc(C(=O)O)c2-c2cnc3ccccc3c2)cc1` [Entry 142, 3-((4-methoxyphenyl)ethynyl)-2-(quinolin-3-yl)benzoic acid] has an IC50 of 10 to 100 µM.
For `O=C(O)c1cccc(C#Cc2ccc(N3CCOCC3)cc2)c1-c1ccc2cc[nH]c2c1` [Entry 226, 2-(1H-indol-6-yl)-3-((4-morpholinophenyl)ethynyl)benzoic acid], the IC50 was 10 to 100 µM.
In the case of `O=C(O)c1cccc(C#Cc2ccccc2)c1-c1ccccc1` [Entry 124, 2-phenyl-3-(2-phenylethynyl)benzoic acid], the IC50 is reported as 10 to 100 µM.
Work on `O=C(O)c1cccc(C#Cc2ccccc2)c1-c1ccc2occc2c1` [Entry 131, 2-(1-benzofuran-5-yl)-3-(2-phenylethynyl)benzoic acid] yielded an IC50 of 10 to 100 µM.
`CN(C)S(=O)(=O)NC(=O)c1cccc(C#Cc2ccc(F)cc2)c1-n1cccc1` [Entry 114, N-(Dimethylsulfamoyl)-3-[2-(4-fluorophenyl)ethynyl]-2-(1H-pyrrol-1-yl)benzamide] showed an IC50 of 1 to 10 µM.
`O=C(O)c1cccc(C#Cc2cnc3cnccn23)c1-n1cccc1` [Entry 11, 3-(2-{imidazo[1,2-a]pyrazin-3-yl}ethynyl)-2-(1H-pyrrol-1-yl)benzoic acid] was tested, and the IC50 was < 1 µM.
`O=C(O)c1cccc(C#Cc2ccccc2)c1` [Entry 92, 3-(2-phenylethynyl)benzoic acid] was tested, and the IC50 was 10 to 100 µM.
Compound `O=C(O)c1cccc(CCc2ccc(F)cc2)c1-n1cccc1` [Entry 149, 3-[2-(4-fluorophenyl)ethyl]-2-(1H-pyrrol-1-yl)benzoic acid] has an IC50 of 10 to 100 µM.
`O=C(O)c1cccc(C#Cc2ccccc2)c1-n1ncc2ccccc21` [Entry 298, 2-indazol-1-yl-3-phenylethynyl-benzoic acid] showed an IC50 of 10 to 100 µM.
Compound `COc1cccc(C#Cc2cccc(C(=O)O)c2-n2cccc2)c1` [Entry 70, 3-[2-(3-methoxyphenyl)ethynyl]-2-(1H-pyrrol-1-yl)benzoic acid] has an IC50 of 1 to 10 µM.
`O=C(O)c1cccc(C#Cc2ccc3ccsc3c2)c1-n1cccc1` [Entry 17, 3-[2-(1-benzothiophen-6-yl)ethynyl]-2-(1H-pyrrol-1-yl)benzoic acid] showed an IC50 of 1 to 10 µM.
In the case of `O=C(O)c1cccc(C#Cc2ccccc2)c1-c1cnc2ccccc2c1` [Entry 122, 3-(2-phenylethynyl)-2-(quinolin-3-yl)benzoic acid], the IC50 is reported as 10 to 100 µM.
